Results published in article PMC7396997, “Discovery of 4-Anilinoquinolinylchalcone Derivatives as Potential NRF2 Activators” (Molecules, 2020).
Where “and” joins values, the source holds several entries; their conditions need not be identical. Identical values can stand only once. Counter-ions that a name gives are not always drawn. Like-named read-outs stand apart in the source and are kept apart here.

Assays:
NRF2 = assay: ARE-driven luciferase reporter assay (NRF2 activity) in HaCaT/ARE stable cells; format: cell-based, human; conditions: for activity at 10 µM: HaCaT, read-out: % of Relative NRF2 Activity in HaCaT Cell; for activity at 10 µM / % of Relative NRF2 Activity in HaCaT Cell: 24 h (b12; method b59 says 18 h), luciferase normalised to cell viability, DMSO control = 100%, 10 μM; for Emax of NRF2 promoter activity / EC50: HaCaT/ARE cells, 18 h, dose-response; for EC50: read-out: EC50 of NRF2 promoter activity
Source text: In this study, we used a stable ARE-driven reporter system to screen the potential NRF2 activators.

HaCaT/ARE cells = assay: Cell viability (resazurin) in the reporter screen; conditions: 10 μM; in % (unit assumed)
Protocol: Immortalized human keratinocytes HaCaT were cultured in the Dulbecco’s modified Eagle’s medium (DMEM; Gibco BRL, Grand Island, NY, USA) with 10% heat-inactivated fetal bovine serum (HyClone, Logan, UT, USA), penicillin (100 U/mL), and streptomycin (100 μg/mL) in a humidified incubator with 5% CO2. HaCaT/ARE stable cells were grown in DMEM supplemented with 100 μg/mL of hygromycin.
HaCaT/ARE stable cells were seeded (1 × 10^4 cells/well) in a 96 well plate, then were treated with indicated concentrations of compounds for 18 h. At the assay time point, resazurin (Cayman Chemical, Ann Arbor, MI, USA) was added to a final concentration of 0.1 mg/mL and further incubated for 4 h at 37 °C. Fluorescence of the reduced resazurin (ex/em: 530 nm/590 nm) was measured from the culture supernatant by using a Synergy HT Multi-Mode Reader (BioTek, Winooski, VT, USA) to determine cell viability. The cells were then harvested for luciferase activity measurements according to the manufacturer’s protocol (Promega Corporation, Madison, WI, USA). Relative luciferase activity was calculated by normalizing luciferase activity to cell viability, and DMSO solvent control was used as 100% activity.

[1] = Cytotoxicity, 72 h resazurin cell viability assay; format: cell-based, human; conditions: human
Protocol: (§1) Cells were seeded in a 96-well plate contained 100 μL culture medium in triplicate and treated with several compounds for 72 h. At the assay time point, resazurin (Cayman Chemical) was added and further incubated for 4 h at 37 °C. Fluorescence of the reduced resazurin was measured as described previously.
(§2) Figure 3 The cytotoxicity of 12b, 13b, and 14b in HaCaT cells. HaCaT cells were treated with indicated concentrations of these three compounds for 72 h. Cell viability was determined by a resazurin assay as described in the Materials and Methods section. Data presented as mean ± SD from three independent experiments.

GCLM and NQO1 = system: GCLM and NQO1; parameters: method as in PMID 21539383; conditions: small intestine; cited from earlier work
HaCaT cells = assay: Cytotoxicity, 72 h resazurin cell viability assay; format: cell-based, human
Protocol: as §1, §2

| Molecule | Cell Viability (HaCaT/ARE cells) | % of Relative NRF2 Activity in HaCaT Cell (NRF2) | other results |
| --- | --- | --- | --- |
| O=C(/C=C/c1cc(Nc2ccccc2)c2ccccc2n1)c1ccccc1 (as salt: hydrochloride) [12a, (E)-1-phenyl-3-[4-(phenylamino)quinolin-2-yl]prop-2-en-1-one] | – | – | melting point: 238.5 to 239.2 °C |
| CC(=O)c1ccc(Nc2cc(/C=C/C(=O)c3ccccc3)nc3ccccc23)cc1 (as salt: hydrochloride) [12b, (E)-3-{4-[(4-acetylphenyl)amino]quinolin-2-yl}-1-phenylprop-2-en-1-one] | – | – | melting point: 248.7 to 249.2 °C |
| O=C(O)c1ccc(Nc2cc(/C=C/C(=O)c3ccccc3)nc3ccccc23)cc1 (as salt: hydrochloride) [12c, (E)-4-{[2-(3-oxo-3-phenylprop-1-en-1-yl)quinolin-4-yl]amino}benzoic acid] | – | – | melting point: 298.3 to 298.9 °C |
| C/C(=N\OCCN)c1ccc(Nc2cc(/C=C/C(=O)c3ccccc3)nc3ccccc23)cc1 (as salt: hydrochloride) [12d] | – | – | melting point: 200.2 to 201.5 °C |
| C/C(=N\OCCCN(C)C)c1ccc(Nc2cc(/C=C/C(=O)c3ccccc3)nc3ccccc23)cc1 (as salt: hydrochloride) [12e, (E)-3-{4-{{4-{(E)-1-{[3-(dimethylamino)propoxy]imino}ethyl}phenyl}-amino}quinolin-2-yl}-1-phenylprop-2-en-1-one] | – | – | melting point: 155.6 to 156.6 °C |
| CCN(CC)CCOC(=O)c1ccc(Nc2cc(/C=C/C(=O)c3ccccc3)nc3ccccc23)cc1 (as salt: hydrochloride) [12h, 2-(Diethylamino)ethyl (E)-4-{[2-(3-oxo-3-phenylprop-1-en-1-yl)quinolin-4-yl]amino}benzoate] | – | – | melting point: 158.7 to 159.3 °C |
| CCN(CC)CCOC(=O)c1ccc(Nc2cc(/C=C/C(=O)c3ccc(F)cc3)nc3ccccc23)cc1 (as salt: hydrochloride) [13h, 2-(Diethylamino)ethyl (E)-4-{{2-[3-(4-fluorophenyl)-3-oxoprop-1-en-1-yl]-quinolin-4-yl}amino}benzoate] | – | – | melting point: 135.4 to 135.8 °C |
| CCN(CC)CCOC(=O)c1ccc(Nc2cc(/C=C/C(=O)c3ccc(OC)cc3)nc3ccccc23)cc1 (as salt: hydrochloride) [14h, 2-(Diethylamino)ethyl (E)-4-{{2-[3-(4-methoxyphenyl)-3-oxoprop-1-en-1-yl]-quinolin-4-yl}amino}benzoate] | – | – | melting point: 158.7 to 159.3 °C |
| O=C(/C=C/c1cc(Nc2ccccc2)c2ccccc2n1)c1ccccc1 [12a, (E)-1-phenyl-3-[4-(phenylamino)quinolin-2-yl]prop-2-en-1-one] | 67.65 ± 0.6 | – | activity at 10 µM (NRF2; Homo sapiens): 7% |
| CC(=O)c1ccc(Nc2cc(/C=C/C(=O)c3ccccc3)nc3ccccc23)cc1 [12b, (E)-3-{4-[(4-acetylphenyl)amino]quinolin-2-yl}-1-phenylprop-2-en-1-one] | 71.2 ± 1.8 | – | Emax of NRF2 promoter activity (NRF2): 692.8±53.3%; activity at 10 µM (NRF2; Homo sapiens): 394%; EC50 (NRF2; Homo sapiens): 0.85 ± 0.04 µM; CC50 at 72 h [1]: 9.3 µM |
| O=C(O)c1ccc(Nc2cc(/C=C/C(=O)c3ccccc3)nc3ccccc23)cc1 [12c, (E)-4-{[2-(3-oxo-3-phenylprop-1-en-1-yl)quinolin-4-yl]amino}benzoic acid] | 81.4 ± 0.8 | – | activity at 10 µM (NRF2; Homo sapiens): 75% |
| C/C(=N\OCCN)c1ccc(Nc2cc(/C=C/C(=O)c3ccccc3)nc3ccccc23)cc1 [12d] | 68.4 ± 1.3 | – | activity at 10 µM (NRF2; Homo sapiens): 287% |
| C/C(=N\OCCCN(C)C)c1ccc(Nc2cc(/C=C/C(=O)c3ccccc3)nc3ccccc23)cc1 [12e, (E)-3-{4-{{4-{(E)-1-{[3-(dimethylamino)propoxy]imino}ethyl}phenyl}-amino}quinolin-2-yl}-1-phenylprop-2-en-1-one] | 69.5 ± 0.9 | – | activity at 10 µM (NRF2; Homo sapiens): 95% |
| CCN(CC)CCNC(=O)c1ccc(Nc2cc(/C=C/C(=O)c3ccccc3)nc3ccccc23)cc1 [12f] | 78.8 ± 0.1 | – | activity at 10 µM (NRF2; Homo sapiens): 26% |
| CCN(CC)CCOC(=O)c1ccc(Nc2cc(/C=C/C(=O)c3ccccc3)nc3ccccc23)cc1 [12h, 2-(Diethylamino)ethyl (E)-4-{[2-(3-oxo-3-phenylprop-1-en-1-yl)quinolin-4-yl]amino}benzoate] | 71.1 ± 1.2 | – | – |
| CCN(CC)CCNC(=O)c1ccc(Nc2cc(/C=C/C(=O)c3ccc(OC)cc3)nc3ccccc23)cc1 [13f] | 88.7 ± 1.9 | – | – |
| CCN(CC)CCOC(=O)c1ccc(Nc2cc(/C=C/C(=O)c3ccc(F)cc3)nc3ccccc23)cc1 [13h, 2-(Diethylamino)ethyl (E)-4-{{2-[3-(4-fluorophenyl)-3-oxoprop-1-en-1-yl]-quinolin-4-yl}amino}benzoate] | 82.7 ± 1.7 | – | – |

| Molecule | Cell Viability (HaCaT/ARE cells) | % of Relative NRF2 Activity in HaCaT Cell (NRF2) | other results |
| --- | --- | --- | --- |
| C/C(=N\OCCCN(C)C)c1ccc(Nc2cc(/C=C/C(=O)c3ccc(F)cc3)nc3ccccc23)cc1 [14e] | 76.7 ± 0.2 | – | activity at 10 µM (NRF2; Homo sapiens): 193% |
| CCN(CC)CCNC(=O)c1ccc(Nc2cc(/C=C/C(=O)c3ccc(F)cc3)nc3ccccc23)cc1 [14f] | 66.3 ± 2.6 | 6.0 ± 0.3% | activity at 10 µM (NRF2; Homo sapiens): 6% |
| CCN(CC)CCOC(=O)c1ccc(Nc2cc(/C=C/C(=O)c3ccc(OC)cc3)nc3ccccc23)cc1 [14h, 2-(Diethylamino)ethyl (E)-4-{{2-[3-(4-methoxyphenyl)-3-oxoprop-1-en-1-yl]-quinolin-4-yl}amino}benzoate] | 76.8 ± 0.2 | – | activity at 10 µM (NRF2; Homo sapiens): 127% |
| COc1ccccc1C(=O)/C=C/c1ccccc1C(F)(F)F [Compound 1, (E)-1-(2-methoxyphenyl)-3-[2-(trifluoromethyl)phenyl]prop-2-en-1-one] | – | – | expression of GCLM compared to sulforaphane (GCLM and NQO1): 3 fold; expression of NQO1 compared to sulforaphane (GCLM and NQO1): 5 fold |
| COc1ccc(/C=C/C(=O)c2c(O)cc(OC)cc2OC)cc1 [Flavokawain A, reference compound] | 95.9 ± 1.6 | – | – |
| CC(C)(C)c1cc(O)ccc1O [t-BHQ, tert-Butyl hydroquinone, reference compound] | 97.7 ± 1.5 | 1880% and 1880.4 ± 97.2% | – |
| (E)-1-(4-Fluorophenyl)-3-[4-(phenylamino)quinolin-2-yl]prop-2-en-1-one [13a] | – | 6% and 5.5 ± 0.17% | – |
| (E)-1-(4-Methoxyphenyl)-3-[4-(phenylamino)quinolin-2-yl]prop-2-en-1-one [14a] | – | 7% and 7.1 ± 1.3% | – |
| (E)-3-{4-[(4-Acetylphenyl)amino]quinolin-2-yl}-1-(4-methoxyphenyl)prop-2-en-1-one [14b] | – | 937% and 936.5 ± 39.8% | Emax of NRF2 promoter activity (NRF2): 748.5±73.6%; EC50 (NRF2): 1.58 ± 0.15 µM; CC50 (HaCaT cells): 28.4 µM |
| (E)-3-{4-{{4-{(E)-1-[(2-Aminoethoxy)imino]ethyl}phenyl}amino}quinolin-2-yl}-1-(4-fluorophenyl)prop-2-en-1-one [13d] | – | 1697% and 1697.3 ± 39.8% | – |
| (E)-3-{4-{{4-{(E)-1-[(2-Aminoethoxy)imino]ethyl}phenyl}amino}quinolin-2-yl}-1-(4-methoxyphenyl)prop-2-en-1-one [14d] | – | 229% and 229.4 ± 68.4% | – |
| (E)-3-{4-{{4-{(E)-1-{[2-(Dimethylamino)ethoxy]imino}ethyl}phenyl}-amino}quinolin-2-yl}-1-(4-fluorophenyl)prop-2-en-1-one [13e] | – | 2145% and 2144.7 ± 168.6% | – |
| (E)-4-({2-[3-(4-Fluorophenyl)-3-oxoprop-1-en-1-yl]quinolin-4-yl}amino)-benzoic acid [13c] | 74.5 ± 1.1 | 147% and 147.3 ± 51.7% | – |
| (E)-4-{{2-[3-(4-Methoxyphenyl)-3-oxoprop-1-en-1-yl]quinolin-4-yl}-amino}benzoic acid [14c] | 70.8 ± 1.9 | 212% and 212.6 ± 93.6% | – |
| (E)-N-[2-(Diethylamino)ethyl]-4-{{2-[3-(4-fluorophenyl)-3-oxoprop-1-en-1-yl]quinolin-4-yl}amino}benzamide [13g] | 78.7 ± 0.5 | 5% and 5.1 ± 0.42% | – |
| (E)-N-[2-(Diethylamino)ethyl]-4-{{2-[3-(4-methoxyphenyl)-3-oxoprop-1-en-1-yl]quinolin-4-yl}amino}benzamide [14g] | 77.6 ± 1.5 | 5% and 5.1 ± 0.18% | – |
